Reference: patent publication EP0361645B1, “Organic hydrazine derivatives for pharmaceutical use” (ROHM AND HAAS COMPANY, priority 1988, dated 1990)

Legend:
[1] = system: ligated M. sexta abdomens (L4D1); experiment: Onset of molting in ligated L4D1 M. sexta abdomens (injection); type: in vivo; details: injected into L4D1 abdomens
Description: L4D1 means fourth instar, first day after molting. L4 animals 36 hours after ecdysis were ligated, decapitated and next day injected with varying doses of compound in 1 - 2 ul DMSO. They were scored as follows: 0 = normal L4 abdomens with no L5 crochets or spiracle apolysis; 1 = exposed dorsal vessel (response to moderate levels of molting hormone in the presence of low JH levels); 2 = L5 crochets formed but no spiracle apolysis; 3 = L5 crochets formed and mild spiracle apolysis; 4 = strong molting response, both L5 crochets and spiracle cuticle synthesized. These methods are an adaptation of the method of J. W. Truman, L. M. Riddiford, L. Safranek, 39 Dev. Biol 247 (1974). Injection and scoring of L5D3 abdomens (weighing 6.5 - 7.5 g) are also adaptations of previous methods in H. F. Nijhout, 22 J. Insect Physiol. 453 (1976). […] Animals were held over moistened filter paper at 25 ° C and were scored after three days. […] For both L4 and L5 abdomens, 50% effective doses were determined by plotting the mean score for all individuals vs. dose, then determining the dose which gives a score of 2.0 and 1.5 respectively. Intact L5D0 hornworms were either allowed to feed on treated commercial black cutworm diet or injected into a proleg and scored after 48 hours. The 50% effective dose was calculated by plotting percentage of the population bearing a prematurely apolysed head capsule vs. dose. […]

[2] = system: dipteran larvae (both houseflies and mosquitoes) and certain coleopteran larvae; experiment: Control of larvae and ovariole development in other insect orders; type: in vivo
Excerpt: We have observed the induction of premature head capsule apolysis by Example No. 3 in all larval stages of M. sexta. This phenomenon has also been observed in larval Lepidoptera of the families Noctuidae, Pyralidae and Pieridae. […] This latter activity is consistent with its putative ecdysonergic mechanism of action.

[3] = system: M. sexta; experiment: Hemolymph ecdysteroid titers (radioimmunoassay) and weight gain of fourth instar M. sexta fed compound in artificial diet; type: in vivo, Manduca sexta
Description: The invention will now be further described by way of exemplification and by reference to the drawings in which; • Figure 1. Both 20-hydroxyecdysone and Example No. 3 induce process elaboration (A) and inhibition of cell proliferation (B) in Kr cells in a dose-dependent manner. Initial cell density was 2 X 10^6 cells/ml; after incubation of 1 ml aliquots of the cells with the compound for 48 hours the cells were triturated gently and the percentage of cells responding (with processes longer than approximately 17 um, see Cherbas et al. 189 Wilhelm Roux's Arch. 1 (1980)) and total cell density was determined by hemocytom- eter counting, relative to ethanol (1 ul)-treated controls. Determinations were in triplicate for each dose. […] Induction of acetylcholinesterase by varying concentrations of 20-hydroxyecdysone and Example No. 3. Kr cells at an initial density of 3 X 10^6 cells/ml (10 ml per sample) were incubated with the agonist for three days. After harvesting, by centrifugation at 3000 X g, the cell pellets were washed with Robb's Drosophila saline (18, 2 X 5 ml) at 4 ° C, then lysed by sonication in 1 ml of phosphate buffer (pH 7.4, I = 0.1 M) containing 0.5 M NaCI, 0.25 M EDTA and 0.5% TRITON? X-100. See Cherbas, 197 Science 275 (1977). Triton is a registered trademark of Rohm and Haas Company for a alkylaryl polyoxyethylene glycol surfactant. After centrifugation at 16,000 X g, the supernatants were assayed for acetylcholinesterase activity by an adaptation of the method of Ellman et al., 7 Biochem. Pharmacol. 88 (1961), by subtracting out any 412 nm absorbance observed in incubations in the presence of 2 X 10-5 eserine sulfate. Thus reaction mixtures contained 50 ul of enzyme extract, 20 ul eserine (blank tubes only) and 1.0 ml of 0.5 mM acetylthiocholine, 0.3 mM dithiobisnitrobenzoic acid in phosphate buffer (pH 7.4, I = 0.1 M). Incubations were at 25 ° C for two hours; reactions in active tubes were terminated by addition of eserine. Absorbance at 412 nm was then measured. Protein concentration in extracts was measured by the Biorad method. […] Scatchard plot of ^3H-ponasterone A binding to Kr cell cytosolic receptor extracts in the presence of differing concentrations of Example No. 3. Cytosolic extract preparation and ecdysteroid receptor assays were essentially as described in Sage, 111 Meth. in Enzymol. 458 (1985). Example No. 3 was added in 1 ul DMSO to 50 ul of radioligand in 10 mM Tris buffer (pH 7.2) and 50 ul of undiluted cytosol extract. After incubation overnight at 0.5 ° C, bound label was separated from free by addition of 300 ul 1% HCI-washed charcoal (Sigma) and 0.1% Dextran T70 (Pharmacia) in Tris buffer, centrifugation (13,000 X g, 3 min, 4 ° C) and liquid scintillation counting of a 300 ul aliquot of the supernatant in 15 ml Hydrofluor (National Diagnostics). Points are means of duplicate determinations. […] Relative ability of 20 hydroxyecdysone and Example No. 3 to displace ^3H-ponasterone A from cytosolic receptor extracts. Conditions were as in Figure 3 except that only 0.5 nM ponasterone A was used. • Points are means of duplicate determinations. For 20-hydroxyecdysone EC50 = 0.1 uM while for Example No. 3 EC50 = 3.0 uM. Control binding = 10 femtomoles ^3H-ponasterone A bound per mg cytosol protein. • Figure 4. […] Ecdysteroid titers were measured by a radioimmunoassay adapted from Warren et al., 40 Experientia 393 (1984) with Protein A-Staph. aureus suspension (Sigma) used as the reagent to separate bound from free ligand. […]

[4] = system: antiecdysone antiserum; experiment: Binding by antiecdysone antiserum (radioimmunoassay)
Description: The invention will now be further described by way of exemplification and by reference to the drawings in which; • Figure 1. Both 20-hydroxyecdysone and Example No. 3 induce process elaboration (A) and inhibition of cell proliferation (B) in Kr cells in a dose-dependent manner. Initial cell density was 2 X 10^6 cells/ml; after incubation of 1 ml aliquots of the cells with the compound for 48 hours the cells were triturated gently and the percentage of cells responding (with processes longer than approximately 17 um, see Cherbas et al. 189 Wilhelm Roux's Arch. 1 (1980)) and total cell density was determined by hemocytom- eter counting, relative to ethanol (1 ul)-treated controls. Determinations were in triplicate for each dose. […] Induction of acetylcholinesterase by varying concentrations of 20-hydroxyecdysone and Example No. 3. Kr cells at an initial density of 3 X 10^6 cells/ml (10 ml per sample) were incubated with the agonist for three days. After harvesting, by centrifugation at 3000 X g, the cell pellets were washed with Robb's Drosophila saline (18, 2 X 5 ml) at 4 ° C, then lysed by sonication in 1 ml of phosphate buffer (pH 7.4, I = 0.1 M) containing 0.5 M NaCI, 0.25 M EDTA and 0.5% TRITON? X-100. See Cherbas, 197 Science 275 (1977). Triton is a registered trademark of Rohm and Haas Company for a alkylaryl polyoxyethylene glycol surfactant. After centrifugation at 16,000 X g, the supernatants were assayed for acetylcholinesterase activity by an adaptation of the method of Ellman et al., 7 Biochem. Pharmacol. 88 (1961), by subtracting out any 412 nm absorbance observed in incubations in the presence of 2 X 10-5 eserine sulfate. […] Absorbance at 412 nm was then measured. Protein concentration in extracts was measured by the Biorad method. […] Ecdysteroid titers were measured by a radioimmunoassay adapted from Warren et al., 40 Experientia 393 (1984) with Protein A-Staph. aureus suspension (Sigma) used as the reagent to separate bound from free ligand. […]

[5] = L4 M. sexta, 10 ppm in artificial diet

With `CC(C)(C)N(NC(=O)c1ccccc1)C(=O)c1ccccc1` [Example No. 3, N'-t-butyl-N,N'-dibenzoylhydrazine] the “fold more potent than 20-hydroxyecdysone” value [1] was 30 fold, the control of larvae ([2]; houseflies, mosquitoes, certain coleopteran larvae) was “controls” and the ovariole development ([2]; in all three orders) was “inhibit ovariole development”. The “ecdysone titers relative to control levels” value ([3]; L4D0 animals, within four hours after the initiation of feeding) was “significantly depressed”, the “outcome of the molt” value ([3]; L4 M. sexta treated larvae) was “eventually died without completing the molt” and the “feeding and weight gain” value [3, 5] was “further feeding and weight gain ceases”. The immunoreactive ecdysone titers [3, 5] was “without any elevation of ecdysone titers”, the “time to head capsule slippage” value [3, 5] was 24 h and the “binding by antiecdysone antiserum” value ([4]; 1 X 10^-4 M) was “not significantly bound”. For the same molecule, the “fold lower binding affinity than 20-hydroxyecdysone” value ([4]; antiecdysone antiserum) was greater than 3125 fold.
